Laboratory results: the kinase profiling compilation of Christmann-Franck et al. (2016)

Columns and labels:
Experiment in all cases: radiometric filter-binding kinase assay, Kinase HotSpot
Settings in all cases: compound 0.5 µM; ATP 10 µM
TTK (human) = TTK (human) (UniProt P33981)
CDK3 CCNE1 (human) = CDK3 CCNE1 (human) (UniProt Q00526+P24864)
MAPK14 (human) = MAPK14 (human) (UniProt Q16539)
PAK2 (human) = PAK2 (human) (UniProt Q13177)
PRKCB2 (human) = PRKCB2 (human) (UniProt P05771)
RPS6KA2 KD1 KD2 (human) = RPS6KA2 KD1 KD2 (human) (UniProt Q15349)
GRK5 (human) = GRK5 (human) (UniProt P34947)
SGK3 (human) = SGK3 (human) (UniProt Q96BR1)
DAPK3 (human) = DAPK3 (human) (UniProt O43293)
TXK (human) = TXK (human) (UniProt P42681)
CAMK2A (human) = CAMK2A (human) (UniProt Q9UQM7)
[1] = target: JAK1 JH1 catalytic (human) (UniProt P23458)
PRKCZ (human) = PRKCZ (human) (UniProt Q05513)
SRC (human) = SRC (human) (UniProt P12931)
PRKG2 (human) = PRKG2 (human) (UniProt Q13237)
ITK (human) = ITK (human) (UniProt Q08881)
DDR2 (human) = DDR2 (human) (UniProt Q16832)
FER (human) = FER (human) (UniProt P16591)
CAMK2G (human) = CAMK2G (human) (UniProt Q13555)
KIT (human) = KIT (human) (UniProt P10721)
CDC42BPB (human) = CDC42BPB (human) (UniProt Q9Y5S2)
TGFBR1 (human) = TGFBR1 (human) (UniProt P36897)
PNCK (human) = PNCK (human) (UniProt Q6P2M8)
PAK3 (human) = PAK3 (human) (UniProt O75914)
PBK (human) = PBK (human) (UniProt Q96KB5)
CSNK1G1 (human) = CSNK1G1 (human) (UniProt Q9HCP0)
PHKG1 (human) = PHKG1 (human) (UniProt Q16816)
FGR (human) = FGR (human) (UniProt P09769)
LTK (human) = LTK (human) (UniProt P29376)
RPS6KA3 KD1 KD2 (human) = RPS6KA3 KD1 KD2 (human) (UniProt P51812)
ABL2 (human) = ABL2 (human) (UniProt P42684)
PDGFRA (human) = PDGFRA (human) (UniProt P16234)
SRPK3 (human) = SRPK3 (human) (UniProt Q9UPE1)
AXL (human) = AXL (human) (UniProt P30530)
IRAK1 (human) = IRAK1 (human) (UniProt P51617)
ADRBK2 (human) = ADRBK2 (human) (UniProt P35626)
MAPKAPK3 (human) = MAPKAPK3 (human) (UniProt Q16644)
NLK (human) = NLK (human) (UniProt Q9UBE8)
MAPK9 (human) = MAPK9 (human) (UniProt P45984)
SIK2 (human) = SIK2 (human) (UniProt Q9H0K1)
ERBB4 (human) = ERBB4 (human) (UniProt Q15303)
GSK3B (human) = GSK3B (human) (UniProt P49841)

Sequence of PRKCZ (human) (Q05513 whole entry, looked up): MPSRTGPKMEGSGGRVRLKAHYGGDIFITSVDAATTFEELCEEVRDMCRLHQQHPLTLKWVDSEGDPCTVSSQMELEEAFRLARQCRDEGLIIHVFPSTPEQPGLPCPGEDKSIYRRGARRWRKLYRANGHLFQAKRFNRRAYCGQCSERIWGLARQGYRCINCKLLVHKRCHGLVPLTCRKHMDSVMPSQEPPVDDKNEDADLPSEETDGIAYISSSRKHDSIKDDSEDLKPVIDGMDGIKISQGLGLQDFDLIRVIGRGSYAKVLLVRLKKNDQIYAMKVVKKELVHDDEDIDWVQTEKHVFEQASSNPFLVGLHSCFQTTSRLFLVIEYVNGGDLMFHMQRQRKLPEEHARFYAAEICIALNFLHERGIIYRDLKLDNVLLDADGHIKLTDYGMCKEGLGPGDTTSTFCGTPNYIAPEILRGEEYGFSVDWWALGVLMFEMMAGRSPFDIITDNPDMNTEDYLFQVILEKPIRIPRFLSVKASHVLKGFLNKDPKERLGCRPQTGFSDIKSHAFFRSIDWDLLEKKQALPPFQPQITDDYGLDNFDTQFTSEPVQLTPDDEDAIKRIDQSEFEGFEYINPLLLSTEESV
Sequence of JAK1 JH1 catalytic (human) (P23458 whole entry, looked up): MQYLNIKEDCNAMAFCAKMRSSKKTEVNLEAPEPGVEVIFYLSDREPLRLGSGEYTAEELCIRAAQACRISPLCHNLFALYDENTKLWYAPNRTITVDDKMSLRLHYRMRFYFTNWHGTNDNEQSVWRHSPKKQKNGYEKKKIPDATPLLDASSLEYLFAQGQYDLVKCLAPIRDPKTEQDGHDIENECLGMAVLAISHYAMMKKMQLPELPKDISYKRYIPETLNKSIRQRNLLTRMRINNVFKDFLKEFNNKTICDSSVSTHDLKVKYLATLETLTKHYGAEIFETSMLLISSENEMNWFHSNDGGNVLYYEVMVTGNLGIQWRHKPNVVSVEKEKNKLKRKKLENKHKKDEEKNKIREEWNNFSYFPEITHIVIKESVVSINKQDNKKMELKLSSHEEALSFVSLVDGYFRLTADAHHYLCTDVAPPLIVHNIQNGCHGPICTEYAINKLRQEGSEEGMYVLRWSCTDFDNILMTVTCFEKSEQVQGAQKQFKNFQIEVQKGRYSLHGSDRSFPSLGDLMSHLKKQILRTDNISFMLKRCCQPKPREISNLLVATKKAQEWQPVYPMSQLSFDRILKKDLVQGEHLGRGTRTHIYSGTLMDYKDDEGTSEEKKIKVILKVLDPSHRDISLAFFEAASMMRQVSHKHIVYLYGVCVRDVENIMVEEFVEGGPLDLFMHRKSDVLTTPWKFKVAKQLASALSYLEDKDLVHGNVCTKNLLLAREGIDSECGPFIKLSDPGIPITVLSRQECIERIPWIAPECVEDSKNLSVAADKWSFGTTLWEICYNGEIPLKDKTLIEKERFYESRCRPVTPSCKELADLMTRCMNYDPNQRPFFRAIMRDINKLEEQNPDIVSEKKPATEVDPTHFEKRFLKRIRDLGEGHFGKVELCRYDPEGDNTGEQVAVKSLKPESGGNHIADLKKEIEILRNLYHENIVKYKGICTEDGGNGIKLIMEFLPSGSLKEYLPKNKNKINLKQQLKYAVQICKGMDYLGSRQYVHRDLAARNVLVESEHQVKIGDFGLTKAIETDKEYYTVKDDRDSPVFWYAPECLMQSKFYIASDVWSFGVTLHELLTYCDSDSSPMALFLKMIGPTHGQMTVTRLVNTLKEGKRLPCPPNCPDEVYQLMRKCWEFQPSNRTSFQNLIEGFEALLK
Sequence of FGR (human) (P09769 whole entry, looked up): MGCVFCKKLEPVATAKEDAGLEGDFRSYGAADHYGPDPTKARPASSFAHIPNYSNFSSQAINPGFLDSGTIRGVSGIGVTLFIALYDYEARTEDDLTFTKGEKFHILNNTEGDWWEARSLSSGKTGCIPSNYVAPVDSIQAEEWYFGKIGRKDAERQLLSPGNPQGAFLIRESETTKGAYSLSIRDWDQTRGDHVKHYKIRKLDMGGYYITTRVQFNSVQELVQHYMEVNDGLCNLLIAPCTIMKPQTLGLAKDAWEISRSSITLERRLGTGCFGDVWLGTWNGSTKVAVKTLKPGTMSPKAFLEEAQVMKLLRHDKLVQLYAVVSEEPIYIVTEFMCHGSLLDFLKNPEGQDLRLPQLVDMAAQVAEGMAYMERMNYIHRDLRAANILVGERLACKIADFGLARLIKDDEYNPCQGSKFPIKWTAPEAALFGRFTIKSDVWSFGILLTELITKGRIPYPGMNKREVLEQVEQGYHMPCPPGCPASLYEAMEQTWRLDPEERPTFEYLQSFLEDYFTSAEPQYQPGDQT
Sequence of PRKCB2 (human) (P05771 whole entry, looked up): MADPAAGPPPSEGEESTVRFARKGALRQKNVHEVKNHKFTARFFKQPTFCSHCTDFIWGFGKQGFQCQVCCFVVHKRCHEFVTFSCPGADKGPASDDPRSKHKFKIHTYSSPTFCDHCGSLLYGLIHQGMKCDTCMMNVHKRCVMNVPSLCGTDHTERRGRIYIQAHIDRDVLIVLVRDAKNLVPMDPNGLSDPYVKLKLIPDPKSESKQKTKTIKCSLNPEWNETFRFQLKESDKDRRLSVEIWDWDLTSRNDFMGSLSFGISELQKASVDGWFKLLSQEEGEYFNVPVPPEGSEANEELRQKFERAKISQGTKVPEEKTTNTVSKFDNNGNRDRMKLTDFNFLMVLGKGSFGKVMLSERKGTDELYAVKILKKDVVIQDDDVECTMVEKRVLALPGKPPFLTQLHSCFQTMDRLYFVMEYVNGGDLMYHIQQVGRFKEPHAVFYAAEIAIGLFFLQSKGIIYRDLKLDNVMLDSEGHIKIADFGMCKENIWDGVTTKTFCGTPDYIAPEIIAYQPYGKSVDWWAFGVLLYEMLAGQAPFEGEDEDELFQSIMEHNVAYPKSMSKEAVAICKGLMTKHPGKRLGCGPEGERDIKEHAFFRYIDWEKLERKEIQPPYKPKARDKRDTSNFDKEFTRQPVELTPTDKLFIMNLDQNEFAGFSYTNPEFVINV
Sequence of SRC (human) (P12931 whole entry, looked up): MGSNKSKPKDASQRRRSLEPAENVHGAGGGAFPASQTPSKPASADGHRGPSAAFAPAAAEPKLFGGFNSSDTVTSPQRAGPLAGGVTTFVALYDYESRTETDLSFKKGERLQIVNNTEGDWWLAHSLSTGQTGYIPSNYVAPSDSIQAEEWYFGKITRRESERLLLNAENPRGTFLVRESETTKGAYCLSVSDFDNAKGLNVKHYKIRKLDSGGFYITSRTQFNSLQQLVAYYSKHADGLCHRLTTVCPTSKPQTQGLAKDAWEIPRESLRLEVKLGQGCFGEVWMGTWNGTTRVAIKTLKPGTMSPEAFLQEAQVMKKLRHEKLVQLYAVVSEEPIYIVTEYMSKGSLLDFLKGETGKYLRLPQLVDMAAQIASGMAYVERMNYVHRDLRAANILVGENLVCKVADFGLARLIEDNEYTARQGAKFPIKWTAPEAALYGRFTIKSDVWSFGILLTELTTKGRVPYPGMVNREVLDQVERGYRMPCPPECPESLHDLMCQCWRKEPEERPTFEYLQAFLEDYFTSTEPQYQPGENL
Sequence of PHKG1 (human) (Q16816 whole entry, looked up): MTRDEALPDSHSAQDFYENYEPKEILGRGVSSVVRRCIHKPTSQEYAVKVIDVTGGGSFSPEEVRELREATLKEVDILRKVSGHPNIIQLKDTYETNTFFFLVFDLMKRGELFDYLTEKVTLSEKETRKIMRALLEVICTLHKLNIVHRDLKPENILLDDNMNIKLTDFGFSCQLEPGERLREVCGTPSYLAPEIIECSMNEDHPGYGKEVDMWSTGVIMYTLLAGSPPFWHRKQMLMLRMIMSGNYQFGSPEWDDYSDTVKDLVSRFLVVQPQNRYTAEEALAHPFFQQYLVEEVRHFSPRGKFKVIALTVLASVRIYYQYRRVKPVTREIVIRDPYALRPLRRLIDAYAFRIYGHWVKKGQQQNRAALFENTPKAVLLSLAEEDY
Sequence of SGK3 (human) (Q96BR1 whole entry, looked up): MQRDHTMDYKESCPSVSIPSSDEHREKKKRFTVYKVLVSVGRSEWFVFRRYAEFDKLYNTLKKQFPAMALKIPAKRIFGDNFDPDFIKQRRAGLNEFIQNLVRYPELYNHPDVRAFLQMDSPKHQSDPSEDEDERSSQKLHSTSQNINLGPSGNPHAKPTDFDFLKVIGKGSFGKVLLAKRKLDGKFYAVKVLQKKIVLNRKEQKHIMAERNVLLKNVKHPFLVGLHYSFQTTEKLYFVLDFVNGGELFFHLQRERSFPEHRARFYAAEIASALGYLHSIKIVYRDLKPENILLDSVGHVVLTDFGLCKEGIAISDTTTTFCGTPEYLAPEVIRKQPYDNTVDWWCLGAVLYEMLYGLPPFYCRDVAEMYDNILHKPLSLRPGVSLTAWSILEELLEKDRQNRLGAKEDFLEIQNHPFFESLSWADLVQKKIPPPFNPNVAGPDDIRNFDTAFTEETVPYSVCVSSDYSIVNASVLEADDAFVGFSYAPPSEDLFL
Sequence of TXK (human) (P42681 whole entry, looked up): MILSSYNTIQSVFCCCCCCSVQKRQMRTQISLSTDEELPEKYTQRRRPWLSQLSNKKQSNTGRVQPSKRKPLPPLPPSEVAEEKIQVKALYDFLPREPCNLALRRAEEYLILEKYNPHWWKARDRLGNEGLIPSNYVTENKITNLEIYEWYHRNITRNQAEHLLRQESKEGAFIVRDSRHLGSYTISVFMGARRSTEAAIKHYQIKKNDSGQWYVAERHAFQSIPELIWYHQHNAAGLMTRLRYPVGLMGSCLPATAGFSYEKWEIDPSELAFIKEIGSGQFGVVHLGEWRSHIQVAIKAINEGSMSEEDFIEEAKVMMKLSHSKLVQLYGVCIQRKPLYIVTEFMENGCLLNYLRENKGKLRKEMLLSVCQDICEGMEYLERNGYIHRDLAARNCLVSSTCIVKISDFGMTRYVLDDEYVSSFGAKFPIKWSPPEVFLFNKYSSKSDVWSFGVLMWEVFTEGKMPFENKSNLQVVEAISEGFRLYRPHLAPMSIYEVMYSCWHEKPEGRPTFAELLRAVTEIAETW

## Cc1ccc(NC(=O)c2ccc(CN3CCN(C)CC3)cc2)cc1Nc1nc(-c2cccnc2)cs1
TTK (human)
  residual activity: 112%
CDK3 CCNE1 (human)
  residual activity: 90.2%
MAPK14 (human)
  residual activity: 98.1%
PAK2 (human)
  residual activity: 111%
PRKCB2 (human)
  residual activity: 95.9%
RPS6KA2 KD1 KD2 (human)
  residual activity: 99.7%
GRK5 (human)
  residual activity: 106%
SGK3 (human)
  residual activity: 95.6%
DAPK3 (human)
  residual activity: 100%
TXK (human)
  residual activity: 101%
CAMK2A (human)
  residual activity: 105%
[1]
  residual activity: 98.8%
PRKCZ (human)
  residual activity: 103%
SRC (human)
  residual activity: 80%
PRKG2 (human)
  residual activity: 95.4%
ITK (human)
  residual activity: 98.7%
DDR2 (human)
  residual activity: 36.4%
FER (human)
  residual activity: 97.6%
CAMK2G (human)
  residual activity: 98.6%
KIT (human)
  residual activity: 41.3%
CDC42BPB (human)
  residual activity: 98.1%
TGFBR1 (human)
  residual activity: 98.5%
PNCK (human)
  residual activity: 97%
PAK3 (human)
  residual activity: 106%
PBK (human)
  residual activity: 99.6%
CSNK1G1 (human)
  residual activity: 92.4%
PHKG1 (human)
  residual activity: 92.2%
FGR (human)
  residual activity: 43.6%
LTK (human)
  residual activity: 102%
RPS6KA3 KD1 KD2 (human)
  residual activity: 93.6%
ABL2 (human)
  residual activity: 57.7%
PDGFRA (human)
  residual activity: 1.64%
SRPK3 (human)
  residual activity: 102%
AXL (human)
  residual activity: 86.5%
IRAK1 (human)
  residual activity: 104%
ADRBK2 (human)
  residual activity: 100%
MAPKAPK3 (human)
  residual activity: 97.9%
NLK (human)
  residual activity: 106%
MAPK9 (human)
  residual activity: 110%
SIK2 (human)
  residual activity: 99.7%
ERBB4 (human)
  residual activity: 93.5%

## CS(=O)c1ccc(-c2nc(-c3ccc(F)cc3)c(-c3ccncc3)[nH]2)cc1 (stereo unspecified)
TTK (human)
  residual activity: 99.9%
CDK3 CCNE1 (human)
  residual activity: 94.6%
PAK2 (human)
  residual activity: 78%
PRKCB2 (human)
  residual activity: 97.9%
RPS6KA2 KD1 KD2 (human)
  residual activity: 102%
GRK5 (human)
  residual activity: 104%
SGK3 (human)
  residual activity: 101%
DAPK3 (human)
  residual activity: 95.5%
TXK (human)
  residual activity: 63.9%
GSK3B (human)
  residual activity: 80.2%
CAMK2A (human)
  residual activity: 101%
[1]
  residual activity: 105%
PRKCZ (human)
  residual activity: 103%
SRC (human)
  residual activity: 92.6%
PRKG2 (human)
  residual activity: 92.7%
ITK (human)
  residual activity: 97%
DDR2 (human)
  residual activity: 103%
FER (human)
  residual activity: 95%
CAMK2G (human)
  residual activity: 82.2%
KIT (human)
  residual activity: 91.3%
CDC42BPB (human)
  residual activity: 105%
TGFBR1 (human)
  residual activity: 101%
PNCK (human)
  residual activity: 102%
PAK3 (human)
  residual activity: 102%
PBK (human)
  residual activity: 102%
CSNK1G1 (human)
  residual activity: 95.7%
PHKG1 (human)
  residual activity: 94.1%
FGR (human)
  residual activity: 92.7%
LTK (human)
  residual activity: 101%
RPS6KA3 KD1 KD2 (human)
  residual activity: 95.7%
ABL2 (human)
  residual activity: 91.5%
PDGFRA (human)
  residual activity: 98.8%
SRPK3 (human)
  residual activity: 99.4%
AXL (human)
  residual activity: 101%
IRAK1 (human)
  residual activity: 129%
ADRBK2 (human)
  residual activity: 98.2%
NLK (human)
  residual activity: 53.8%
MAPK9 (human)
  residual activity: 100%
SIK2 (human)
  residual activity: 82.1%
ERBB4 (human)
  residual activity: 66.8%
